For 1 compound, EC50 results are on record in PMC3509528, “Preliminary Structure-Activity Relationship on Theonellasterol, a New Chemotype of FXR Antagonist, from the Marine Sponge Theonella swinhoei” (Marine Drugs, 2012).

In the experiment the target is T1, FXR (farnesoid-X-receptor; pCMVSPORT-FXR) (Homo sapiens, UniProt Q96RI1).
T1 construct: gene NR1H4; FXR expressed from pCMVSPORT-FXR, co-transfected with pSG5-RXR in HepG2 cells; p(hsp27)TKLUC luciferase reporter (IR1 element), Renilla normalisation
T1 sequence (Q96RI1 1-486): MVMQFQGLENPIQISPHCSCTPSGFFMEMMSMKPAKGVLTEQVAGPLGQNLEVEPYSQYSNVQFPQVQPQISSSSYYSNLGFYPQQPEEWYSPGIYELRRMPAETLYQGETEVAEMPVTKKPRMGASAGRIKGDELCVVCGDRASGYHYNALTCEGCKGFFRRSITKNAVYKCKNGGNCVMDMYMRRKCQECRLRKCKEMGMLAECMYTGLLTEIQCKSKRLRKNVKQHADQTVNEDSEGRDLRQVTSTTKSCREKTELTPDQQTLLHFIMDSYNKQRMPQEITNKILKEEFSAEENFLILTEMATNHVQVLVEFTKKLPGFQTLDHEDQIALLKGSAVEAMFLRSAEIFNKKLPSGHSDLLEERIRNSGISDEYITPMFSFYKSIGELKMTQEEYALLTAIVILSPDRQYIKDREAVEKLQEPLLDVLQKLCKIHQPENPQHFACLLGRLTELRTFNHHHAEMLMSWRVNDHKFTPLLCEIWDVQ
T1 sequence (P19793 1-462 partner): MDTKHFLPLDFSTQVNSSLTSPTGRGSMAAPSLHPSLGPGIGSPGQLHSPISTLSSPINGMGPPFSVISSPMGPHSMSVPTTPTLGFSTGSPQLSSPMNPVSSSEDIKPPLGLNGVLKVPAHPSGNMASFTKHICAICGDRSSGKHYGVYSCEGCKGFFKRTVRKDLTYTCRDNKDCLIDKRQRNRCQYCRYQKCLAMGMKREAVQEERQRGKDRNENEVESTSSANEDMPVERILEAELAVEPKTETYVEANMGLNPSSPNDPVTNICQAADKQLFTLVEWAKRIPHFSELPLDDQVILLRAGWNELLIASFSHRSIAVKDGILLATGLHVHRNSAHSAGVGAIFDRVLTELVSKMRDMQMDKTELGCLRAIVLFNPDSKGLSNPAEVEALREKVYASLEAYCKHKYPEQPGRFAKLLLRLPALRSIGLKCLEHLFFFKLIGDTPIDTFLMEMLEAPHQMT
The experiment can be described thus: luciferase reporter transactivation assay in transfected HepG2, antagonist mode. It is filed as cell-based.

Molecules are shown by their SMILES.

For the compound `C=C1[C@@H](O)CC[C@@]2(C)[C@H]1CCC1=C3CC[C@H]([C@H](C)CC[C@H](CC)C(C)C)[C@@]3(C)CC[C@@H]12` [compound 1, theonellasterol], the EC50 (usually the concentration needed to bring the measured effect to its halfway point) was approximately 50 µM.
